The results in this text go back to patent US20240216357A1 (SICHUAN HUIYU PHARMACEUTICAL CO., LTD., priority 2021, published 2024).

One assay concerns the target LSD1 (Homo sapiens (Human), UniProt O60341). Description: LSD1 enzyme activity detection (HTRF). The class given is biochemical. To be noted: read-out: Inhibition of enzymatic activity of LSD1 IC50.
For the next assay, the system named is NCI-H1417 cells. Description: In vitro cell proliferation detection (CellTiter-Glo, 7 days). Format: cell-based. Particulars: read-out: NCI-H1417 proliferation inhibition IC50.
Setting [1] is: Homo sapiens, 168 h, NCI-H1417 cells, 7 days, CellTiter-Glo.

Structures can show the parent of a compound that is named as a salt. Where two headings read alike, the source gives them in different places.

Consider `COc1ccc(-c2c(O)cc(N3CCC(N(C)C)CC3)nc2-c2ccc(C#N)c(F)c2)cc1F` [Example 56, 4-(6-(4-(dimethylamino)piperidin-1-yl)-3-(3-fluoro-4-methoxyphenyl)-4-hydroxypyridin-2-yl)-2-fluorobenzonitrile], for which the IC50 amounted to 2.9 ± 1.2 nM at LSD1 (HTRF, H3K4me1 substrate) and 4.88 nM in the assay on NCI-H1417 cells (setting [1]).

As to `N#Cc1ccc(-c2nc(N3CCC(N)CC3)n3ccnc3c2-c2ccc3oc(=O)[nH]c3c2)cc1F` [Example 129, 4-(5-(4-aminopiperidin-1-yl)-8-(2-oxo-2,3-dihydrobenzo[d]oxazol-5-yl)imidazolo[1,2-c]pyrimidin-7-yl)-2-fluorobenzonitrile], the IC50 was 0.61 ± 0.13 nM on LSD1 (HTRF, H3K4me1 substrate) and 112 nM in the assay with NCI-H1417 cells (setting [1]).

In the case of `COc1ccc(-c2c(-c3ccc(C#N)nc3)nc(N3C4CCC3CC(N)C4)n3ccnc23)cc1F` (stereo not shown) [Example 176, 5-(5-(3-amino-8-azabicyclo[3.2.1]octane-8-yl)-8-(3-fluoro-4-methoxyphenyl)imidazolo[1,2-c]pyrimidin-7-yl) picolinonitrile hydrochloride], the IC50 came out at 16.8 nM at LSD1 (HTRF, H3K4me1 substrate) and 21.6 nM in the assay with NCI-H1417 cells (setting [1]).

Turning to `N#Cc1ccc(-c2nc(N3CCC(N)CC3)cc(O)c2-c2ccn3ccnc3c2)cc1F` [Example 17, 4-(6-(4-aminopiperidin-1-yl)-4-hydroxy-3-(imidazolo[1,2-a]pyridin-7-yl)pyridin-2-yl)-2-fluorobenzonitrile hydrochloride], the IC50 on LSD1 (HTRF, H3K4me1 substrate) is 19.4 nM; in the assay with NCI-H1417 cells (setting [1]), above 1000 nM.

Consider `N#Cc1ccc(-c2nc(CCCN[C@@H]3C[C@H]3c3ccc(F)cc3)cc(C(=O)N3CCC(F)(F)CC3)n2)cc1` [Example 258, 4-(4-(4,4-difluoropiperidine-1-carbonyl)-6-(3-(((1R,2S)-2-(4-fluorophenyl)cyclopropyl)amino)propyl)pyrimidin-2-yl)benzonitrile hydrochloride], for which the IC50 at LSD1 (HTRF, H3K4me1 substrate) stood at 232 nM; in the assay on NCI-H1417 cells (setting [1]), 89.7 nM.

With `COc1ccc(-c2c(C)nc(N3CCC(N)CC3)c(C#N)c2-c2ccc(C#N)c(F)c2)cc1O` [Example 276, 2-(4-aminopiperidin-1-yl)-4-(4-cyano-3-fluorophenyl)-5-(3-hydroxy-4-methoxyphenyl)-6-meth ylpyridine-3-carbonitrile], the IC50 at LSD1 (HTRF, H3K4me1 substrate) was found to be 0.1 ± 0.01 nM; with NCI-H1417 cells (setting [1]) it was 1.1 ± 0.7 nM.

Regarding `COc1ccc(-c2sc(C(=O)N3C4CCC3CC(N)C4)cc2-c2ccc(C#N)c(F)c2)cc1O` (stereo not shown) [Example 218, 4-(5-(3-amino-8-azabicyclo [3.2.1]octan-8-carbonyl)-2-(3-hydroxy-4-methoxy-phenyl)thiophen-3-yl)-2-fluorobenzonitrile], the IC50 amounted to 0.15 ± 0.03 nM at LSD1 (HTRF, H3K4me1 substrate) and 0.88 nM with NCI-H1417 cells (setting [1]).

`N#Cc1ccc(-c2cc(C(=O)N3C4CCC3CC(N)C4)sc2-c2ccc3cc[nH]c3c2)cc1F` (stereo not shown) [Example 200, 4-(5-(3-amino-8-azabicyclo [3.2.1]octane-8-carbonyl)-2-(1-hydro-indol-6-yl)thiophen-3-yl)-2-fluorobenzonitrile]: the IC50 at LSD1 (HTRF, H3K4me1 substrate) amounted to 0.69 nM; with NCI-H1417 cells (setting [1]), 34 nM.

For the compound `COc1ccc(-c2cnc(N3CC4CCC3CC4N)c(C#N)c2-c2ccc(C#N)c(F)c2)cc1O` (stereo not shown) [Example 76, 2-(5-amino-2-azabicyclo[2.2.2]octane-2-yl)-4-(4-cyano-3-fluorophenyl)-5-(3-hydroxy-4-methoxyphenyl) nicotinonitrile], the IC50 on LSD1 (HTRF, H3K4me1 substrate) is 4.9 ± 2.5 nM; in the assay with NCI-H1417 cells (setting [1]), 1.37 nM.

Turning to “5′-(4-aminopiperidin-1l-yl)-3-fluoro-3′,3′-dihydroxy-4′-methyl-[1,1′:2′,1′-triphenyl]-4-carbonitrile [Example 266]”, the IC50 on LSD1 worked out at 0.7 ± 0.004 nM; in the assay with NCI-H1417 cells, 0.48 nM.

Consider `Cc1ccc(-c2c(-c3ccc(C#N)cc3)cc3c(N4CCC[C@@H](N)C4)nncn23)cc1` [Example 4, (R)-4-(1-(3-aminopiperidin-1-yl)-6-(p-tolyl)pyrrolo[1,2-d] [1,2,4]triazine-7-yl)benzonitrile], for which the IC50 at LSD1 (HTRF, H3K4me1 substrate) stood at 2.3 ± 0.74 nM; in the assay with NCI-H1417 cells (setting [1]), 30.4 nM.

Regarding `Cc1ccc(-c2c(-c3ccc(C#N)cc3)cc3c(N4CCC(N)CC4)nccn23)cc1` [Example 193, 4-(1-(4-aminopiperidin-1-yl)-6-(p-tolyl)pyrrolo[1,2-a]pyrazin-7-yl)benzonitrile hydrochloride], the IC50 at LSD1 (HTRF, H3K4me1 substrate) is 1.72 nM; in the assay with NCI-H1417 cells (setting [1]), 61.4 nM.

Turning to `N#Cc1ccc(-c2nc(N3CCC(N)CC3)cc(O)c2-c2ccc3oc(=O)[nH]c3c2)cc1F` [Example 19, 4-(6-(4-aminopiperidin-1-yl)-4-hydroxy-3-(2-oxo-2,3-dihydrobenzo[d]oxazol-5-yl)pyridin-2-yl)-2-fluorobenzonitrile hydrochloride], the IC50 is 5.96 nM at LSD1 (HTRF, H3K4me1 substrate) and above 1000 nM in the assay with NCI-H1417 cells (setting [1]).

For `N#Cc1ccc(-c2nc(N3C4CCC3CC(N)C4)n3ccnc3c2-c2cc3c(cc2F)CCN3)cc1F` (stereo not shown) [Example 171], the IC50 at LSD1 (HTRF, H3K4me1 substrate) came out at 1.9 ± 1.5 nM; with NCI-H1417 cells (setting [1]), 6 nM.

As for `N#Cc1ccc(-c2nc(N3CCC(N)CC3)cc(O)c2-c2ccc(OC(F)(F)F)c(F)c2)cc1F` [Example 18, 4-(6-(4-aminopiperidin-1-y)-3-(3-fluoro-4-(trifluoromethoxy)phenyl)-4-hydroxypyridin-2-yl)-2-fluorobenzonitrile], the IC50 was found to be 78.3 nM on LSD1 (HTRF, H3K4me1 substrate) and 87.2 nM in the assay with NCI-H1417 cells (setting [1]).

`O=C(c1cc(CN[C@@H]2C[C@H]2c2ccc(F)cc2)nc(-c2ccc(N3CCOCC3)cc2)n1)N1CCC(F)(F)CC1` [Example 244, (4,4-difluoropiperidin-1-yl)(6-(((1R,2S)-2-(4-f1uorophenyl)cyclopropyl)amino)methyl)-2-(4-morpholinophenyl) pyrimidin-4-yl)methanone hydrochloride]: the IC50 on LSD1 (HTRF, H3K4me1 substrate) came to 116 nM; with NCI-H1417 cells (setting [1]) it was 5.07 nM.

`CCCCCc1noc2cc(-c3sc(C(=O)N4C5CCC4CC(N)C5)cc3-c3ccc(C#N)c(F)c3)c(F)cc12` (stereo not shown) [Example 8, 4-(5-(3-amino-8-azabicyclo[3.2.1]octane-8-carbonyl)-2-(5-fluoro-3-pentylbenzo[d]isoxazol-6-yl)thiophen-3-yl)-2-fluorobenzonitrile]: the IC50 at LSD1 (HTRF, H3K4me1 substrate) amounted to 0.3 ± 0.04 nM; in the assay with NCI-H1417 cells (setting [1]), 6.94 nM.

Take `Cc1ccc(-c2sc(C(=O)N3C4CCC3CC(N)C4)cc2-c2ccc(C#N)c(F)c2)c(F)c1` (stereo not shown) [Example 6, 4-(5-(3-amino-8-azabicyclo[3.2.1]octane-8-carbonyl)-2-(2-fluoro-4-methylphenyl)thiophen-3-yl)-2-fluorobenzonitrile hydrochloride]: the IC50 was determined as 0.3 ± 0.25 nM at LSD1 (HTRF, H3K4me1 substrate) and 3.64 nM in the assay on NCI-H1417 cells (setting [1]).

`CS(=O)(=O)N1CCN(C(=O)c2cc(CN[C@@H]3C[C@H]3c3ccc(F)cc3)nc(-c3ccc(-c4ccn[nH]4)cc3)n2)CC1` [Example 226]: the IC50 at LSD1 (HTRF, H3K4me1 substrate) stood at 19.8 nM; in the assay with NCI-H1417 cells (setting [1]), 2.53 nM.

`N#Cc1ccc(-c2nc(N3CCC(N)CC3)cc(O)c2-c2ccc(Cl)c(O)c2)cc1F` [Example 59, 4-(6-(4-aminopiperidin-1-yl)-3-(4-chloro-3-hydroxyphenyl)-4-hydroxypyridin-2-yl)-2-fluorobenzonitrile]: the IC50 at LSD1 (HTRF, H3K4me1 substrate) is 0.7 ± 0.3 nM; with NCI-H1417 cells (setting [1]) it was 2.35 nM.

Take `COc1ccc(-c2nc(CN[C@@H]3C[C@H]3c3ccc(F)cc3)cc(C(=O)N3CCN(S(C)(=O)=O)CC3)n2)cc1F` [Example 225]: the IC50 at LSD1 (HTRF, H3K4me1 substrate) came to 52.1 nM; in the assay with NCI-H1417 cells (setting [1]), 27.8 nM.

`Cc1noc2cc(-c3c(-c4ccc(C#N)c(F)c4)nc(N4CCC(N)CC4)c4ncoc34)c(F)cc12` [Example 279, 4-(4-(4-aminopiperidin-1-yl)-7-(5-fluoro-3-methylbenzo[d]isoxazol-6-yl)oxazolo[4,5-c]pyridin-6-yl)-2-fluorobenzonitrile]: the IC50 on LSD1 (HTRF, H3K4me1 substrate) is 2.27 nM; with NCI-H1417 cells (setting [1]) it was 6.61 nM.

With `COc1ccc(-c2c(-c3ccc(C#N)c(F)c3)nc(N3CC4CCC(C3)C4N)n3ccnc23)cc1F` (stereo not shown) [Example 162, 4-(5-(8-amino-3-azabicyclo [3.2.1]octyl-3-yl)-8-(3-fluoro-4-methoxyphenyl)imidazolo[1,2-c]pyrimidin-7-yl)-2-fluorobenzonitrile hydrochloride], the IC50 came to 59.9 nM at LSD1 (HTRF, H3K4me1 substrate) and 11.7 nM with NCI-H1417 cells (setting [1]).

For `CS(=O)(=O)N1CCN(C(=O)c2cc(CN[C@@H]3C[C@H]3c3ccc(F)cc3)nc(-c3ccccc3)n2)CC1` [Example 1], the IC50 at LSD1 (HTRF, H3K4me1 substrate) amounted to 186 ± 69.6 nM; in the assay on NCI-H1417 cells (NCI-H1417 cells, 7 days, CellTiter-Glo), 11.3 nM.

On to `Cc1ccc(-c2c(O)cc(N(C)CCCN)nc2-c2ccc(C#N)c(F)c2)cc1O` [Example 63, 4-(6-((3-aminopropyl)(methyl)amino)-4-hydroxy-3-(3-hydroxy-4-methylphenyl)pyridin-2-yl)-2-fluorobenzonitrile hydrochloride], for which the IC50 on LSD1 (HTRF, H3K4me1 substrate) was found to be 5.1 ± 0.4 nM; in the assay with NCI-H1417 cells (setting [1]) it was 192 nM.

For `N#Cc1ccc(-c2nc(N3CCC(N)CC3)cc(O)c2-c2ccc(C#N)c(F)c2)cc1F` [Example 48, 4,4′-(6-(4-aminopiperidin-1-yl)-4-hydroxypyridine-2,3-diyl)bis(2-fluorobenzonitrile)], the IC50 on LSD1 (HTRF, H3K4me1 substrate) was 57.8 nM; in the assay on NCI-H1417 cells (setting [1]), 290 nM.

For `N#Cc1ccc(-c2nc(N3CCC(N)CC3)n3ccnc3c2-c2ccn3ccnc3c2)cc1F` [Example 131, 4-(5-(4-aminopiperidin-1-yl)-8-(imidazolo [1,2-a]pyridin-7-yl)imidazolo[1,2-c]pyrimidin-7-yl)-2-fluorobenzonitrile], the IC50 at LSD1 (HTRF, H3K4me1 substrate) is 4.46 ± 0.09 nM; in the assay with NCI-H1417 cells (setting [1]), 80.7 nM.

On to `CS(=O)(=O)N1CCN(C(=O)c2cc(CN[C@@H]3C[C@H]3c3ccc(F)cc3)nc(-c3ccn4ccnc4c3)n2)CC1` [Example 232], for which the IC50 amounted to 548 nM on LSD1 (HTRF, H3K4me1 substrate) and 209 nM in the assay with NCI-H1417 cells (setting [1]).

For `Cc1noc2cc(-c3nc(CN[C@@H]4C[C@H]4c4ccc(F)cc4)cc(C(=O)N4CCN(S(C)(=O)=O)CC4)n3)c(F)cc12` [Example 235], the IC50 at LSD1 (HTRF, H3K4me1 substrate) was determined as 285 nM; in the assay with NCI-H1417 cells (setting [1]) it was 98.3 nM.
